Data from patent publication US20070128217A1 (priority 2003, published 2007).

Assays:
[1] = test system: antibodies in sera from SARS patients (sera 1a, 1b, 2, 6, 37, 62, London, SARS-yellow, SARS-green); format: binding, human; parameters: Binding of serum 6 to linear peptides of protein X1 of SARS-CoV Urbani / Binding of serum 37 to linear peptides of protein X1 of SARS-CoV Urbani / Binding of serum 6 to looped/cyclic peptide (PEPSCAN-ELISA) / Binding of serum 37 to looped/cyclic peptide (PEPSCAN-ELISA) / Binding of serum 37 to looped/cyclic peptides of protein X1 of SARS-CoV Urbani / Binding of serum 6 to linear peptides of protein X2 / Binding of serum 37 to linear peptides of protein X2 / Binding of serum 37 to looped/cyclic peptides of protein X2 of SARS-CoV Urbani / Binding of serum 6 to linear peptides of protein M of SARS-CoV Urbani / Binding of serum 37 to linear peptides of protein M of SARS-CoV Urbani / Binding of serum 6 to looped/cyclic peptides of protein M of SARS-CoV Urbani / Binding of serum 37 to looped/cyclic peptides of protein M of SARS-CoV Urbani / Binding of serum 6 to linear peptides of protein X3 of SARS-CoV Urbani / Binding of serum 37 to linear peptides of protein X3 of SARS-CoV Urbani / Binding of serum 37 to looped/cyclic peptides of protein X3 of SARS-CoV Urbani / Binding of serum 6 to linear peptides of protein X4 of SARS-CoV Urbani / Binding of serum 37 to linear peptides of protein X4 of SARS-CoV Urbani / Binding of serum 37 to looped/cyclic peptides of protein X4 of SARS-CoV Urbani / Binding of serum 6 to linear peptides of protein X5 of SARS-CoV Urbani / Binding of serum 37 to linear peptides of protein X5 of SARS-CoV Urbani / Binding of serum 37 to looped/cyclic peptides of protein X5 of SARS-CoV Urbani / Binding of serum 6 to linear peptides of protein N of SARS-CoV Urbani / Binding of serum 37 to linear peptides of protein N of SARS-CoV Urbani / Binding of serum 6 to linear peptide (PEPSCAN-ELISA) / Binding of serum 1a to looped/cyclic peptides of protein N of SARS-CoV Urbani / Binding of serum 1b to looped/cyclic peptides of protein N of SARS-CoV Urbani / Binding of serum 2 to looped/cyclic peptides of protein N of SARS-CoV Urbani / Binding of serum 6 to looped/cyclic peptides of protein N of SARS-CoV Urbani / Binding of serum 37 to looped/cyclic peptides of protein N of SARS-CoV Urbani / Binding of serum 62 to looped/cyclic peptides of protein N of SARS-CoV Urbani / Binding of serum London to looped/cyclic peptides of protein N of SARS-CoV Urbani / Binding of serum SARS-green to looped/cyclic peptides of protein N of SARS-CoV Urbani: unit not given here
[2] = test system: control sera (pooled serum of ten healthy LUMC hospital workers; commercial negative donor pooled serum from the Dutch bloodbank); format: binding, human; parameters: Binding of Control serum LUMC to linear peptides / Binding of Control serum Blood-bank to linear peptides / Binding of Control serum LUMC to looped peptides / Binding of Control Serum Blood-Bank to Looped peptides / Binding of Control serum LUMC to linear peptides of the protein M of SARS-CoV Urbani / Binding of Control serum Blood-bank to linear peptides of the protein M of SARS-CoV Urbani / Binding of Control serum LUMC to looped peptides of the protein M of SARS-CoV Urbani / Binding of Control Serum Blood-Bank to Looped peptides of the protein M of SARS-CoV Urbani: unit not given here
[3] = test system: recombinant human anti-SARS-CoV antibody 03-018; format: binding; parameters: Binding of antibody 03-018 to linear peptides of the N protein of SARS-CoV Urbani / Binding of antibody 03-018 to looped/cyclic peptides of the N protein of SARS-CoV Urbani: unit not given here
[4] = test system: rabbit serum obtained by immunizing a rabbit with the SARS-CoV strain Frankfurt 1; format: binding; parameters: Binding of a rabbit serum to linear peptides / Binding of a rabbit serum to looped peptides / Rabbit serum linear peptides / Rabbit serum looped peptides / Binding of a rabbit serum to linear peptides of protein N of SARS-CoV Urbani (Rabbit serum linear peptides) / Binding of a rabbit serum to looped/cyclic peptides of protein N of SARS-CoV Urbani (Rabbit serum looped peptides): unit not given here

| Sequence | Binding of serum 1a to linear peptides of protein N of SARS-CoV Urbani [1] | Binding of serum 1a to looped/cyclic peptides of protein N of SARS-CoV Urbani [1] | Binding of serum 1b to linear peptides of protein N of SARS-CoV Urbani [1] | Binding of serum 1b to looped/cyclic peptides of protein N of SARS-CoV Urbani [1] | Binding of serum 2 to linear peptides of protein N of SARS-CoV Urbani [1] | Binding of serum 2 to looped/cyclic peptides of protein N of SARS-CoV Urbani [1] | Binding of serum 6 to looped/cyclic peptides of protein N of SARS-CoV Urbani [1] | Binding of serum 37 to looped/cyclic peptides of protein N of SARS-CoV Urbani [1] | Binding of serum 62 to looped/cyclic peptides of protein N of SARS-CoV Urbani [1] | Binding of serum London to looped/cyclic peptides of protein N of SARS-CoV Urbani [1] | Binding of serum SARS-green to looped/cyclic peptides of protein N of SARS-CoV Urbani [1] | Binding of serum SARS-yellow to looped/cyclic peptides of protein N of SARS-CoV Urbani [1] | Binding of Control Serum Blood-Bank to Looped peptides [2] | Binding of Control serum Blood-bank to linear peptides [2] | Binding of Control serum LUMC to linear peptides [2] | Binding of Control serum LUMC to looped peptides [2] | Binding of antibody 03-018 to linear peptides of the N protein of SARS-CoV Urbani [3] | Binding of antibody 03-018 to looped/cyclic peptides of the N protein of SARS-CoV Urbani [3] | Binding of a rabbit serum to linear peptides of protein N of SARS-CoV Urbani (Rabbit serum linear peptides) [4] | Binding of a rabbit serum to looped/cyclic peptides of protein N of SARS-CoV Urbani (Rabbit serum looped peptides) [4] | also measured |
| --- | --- | --- | --- | --- | --- | --- | --- | --- | --- | --- | --- | --- | --- | --- | --- | --- | --- | --- | --- | --- | --- |
| PEASLPYGANKEGIV | 0.3 | 0.3 | 0.1 | 0.2 | 0.2 | 0.4 | 0.2 | 0.4 | 0.3 | 0.3 | 0.3 | 0.2 | 0.5 | 0.9 | 0.7 | 0.6 | 0.1 | 0.2 | 0.1 | 0.2 | Binding of serum 6 to linear peptides of protein N of SARS-CoV Urbani [1]: 0.2; Binding of serum 37 to linear peptides of protein N of SARS-CoV Urbani [1]: 0.7; Binding of serum 62 to linear peptides of protein N of SARS-CoV Urbani [1]: 0.7; Binding of serum London to linear peptides of protein N of SARS-CoV Urbani [1]: 0.5; Binding of serum SARS-green to linear peptides of protein N of SARS-CoV Urbani [1]: 0.3; Binding of serum SARS-yellow to linear peptides of protein N of SARS-CoV Urbani [1]: 0.6 |
| PEQTQGNFGDQDLIR | – | 0.4 | – | 0.4 | – | 0.4 | 0.2 | 0.6 | 0.4 | 0.4 | 0.4 | 0.6 | 0.5 | 0.8 | 0.9 | 0.6 | 0.1 | 0.2 | 0.1 | 0.5 | Recognition of the peptide by sera of SARS-CoV infected individuals, and form (linear, looped/cyclic) in which it is recognized [1]: recognized in linear form |
| PKDHIGTRNPNNNAA | 0.3 | 0.4 | 0.1 | 0.3 | 0.3 | 0.3 | 0.3 | 0.5 | 0.3 | 0.3 | 0.2 | 0.2 | 0.5 | 0.8 | 0.8 | 0.6 | 0.1 | 0.2 | 0.2 | 0.2 | Binding of serum 6 to linear peptides of protein N of SARS-CoV Urbani [1]: 0.2; Binding of serum 37 to linear peptides of protein N of SARS-CoV Urbani [1]: 0.8; Binding of serum 62 to linear peptides of protein N of SARS-CoV Urbani [1]: 0.9; Binding of serum London to linear peptides of protein N of SARS-CoV Urbani [1]: 0.5; Binding of serum SARS-green to linear peptides of protein N of SARS-CoV Urbani [1]: 0.4; Binding of serum SARS-yellow to linear peptides of protein N of SARS-CoV Urbani [1]: 0.8 |
| PNNTASWFTALTQHG | 0.2 | 0.4 | 0.1 | 0.2 | 0.2 | 0.3 | 0.2 | 0.6 | 0.5 | 0.3 | 0.7 | 0.6 | 0.7 | 0.5 | 0.7 | 0.7 | 0.1 | 0.3 | 0.1 | 0.4 | Binding of serum 6 to linear peptides of protein N of SARS-CoV Urbani [1]: 0.2; Binding of serum 37 to linear peptides of protein N of SARS-CoV Urbani [1]: 0.7; Binding of serum 62 to linear peptides of protein N of SARS-CoV Urbani [1]: 0.7; Binding of serum London to linear peptides of protein N of SARS-CoV Urbani [1]: 0.5; Binding of serum SARS-green to linear peptides of protein N of SARS-CoV Urbani [1]: 0.3; Binding of serum SARS-yellow to linear peptides of protein N of SARS-CoV Urbani [1]: 0.4 |
